The record followed here is patent publication US6916808B2, “2-thio-4h-3, 1-benzoxazin-4-one derivatives for use as enzyme inhibitors” (Alizyme Therapeutics Limited, priority 2000, dated 2005).

By IC50 is commonly meant the concentration that gives 50% inhibition. A low value points to inhibition by little substance.

The target of this test is T1, porcine pancreatic lipase (Sus scrofa, UniProt P00591).
T1 sequence (P00591 1-450): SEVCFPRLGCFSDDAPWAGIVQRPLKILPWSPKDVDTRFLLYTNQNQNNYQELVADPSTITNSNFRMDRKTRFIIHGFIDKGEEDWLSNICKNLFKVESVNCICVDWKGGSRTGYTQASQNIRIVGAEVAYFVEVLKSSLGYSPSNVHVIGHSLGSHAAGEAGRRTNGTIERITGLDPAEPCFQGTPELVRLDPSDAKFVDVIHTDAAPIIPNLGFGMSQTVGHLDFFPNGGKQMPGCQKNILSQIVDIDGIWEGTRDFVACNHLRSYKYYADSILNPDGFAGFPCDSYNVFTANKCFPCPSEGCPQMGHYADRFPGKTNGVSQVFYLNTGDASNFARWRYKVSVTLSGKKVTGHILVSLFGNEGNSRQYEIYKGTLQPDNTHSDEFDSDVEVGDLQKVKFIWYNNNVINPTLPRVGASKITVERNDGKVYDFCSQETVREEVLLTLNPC
The test is described as follows: Lipase enzyme activity, NaOH titration method (lipid micelles). Format: biochemical. Particulars: NaOH titration assay; system containing lipid micelles. How it is done:
Measurement of Lipase Enzyme Activity Using a NaOH Titration Method
The inhibitory activity of the selected compounds to pancreatic lipase was measured in the assay described in Pasquier et al; 1996, Vol 7, Nutritional Biochemistry, 293-302.
Log dose/response curves were constructed using a range of inhibitor concentrations.
Selected benzoxazinone compounds were tested in the NaOH titration assay. In this assay, the activity of porcine pancreatic lipase in a system containing lipid micelles is recorded. These conditions are therefore similar to those encountered in the gastrointestinal tract.

Structures are written as SMILES.

On to `Cc1ccc2nc(SCCCCCCCCCCc3ccccc3)oc(=O)c2c1` [Compound 5, 6-Methyl-2-(10-phenyldecyl)-thio-4H-3,1-benzoxazin-4-one], for which the IC50 was below 1000 nM.

Compound `Cc1ccc2nc(Sc3ccccc3)oc(=O)c2c1` [Compound 4, 6-Methyl-2-phenylthio-4H-3,1-benzoxazin-4-one] returned a 50% inhibitory concentration (IC50) below 1000 nM.
